What all share (type): physicochemical
Data set [1] can be described thus: Dissolution of lasmiditan acetate at 50 mg/mL: pH and tonicity of the solution. As to conditions: dissolution at 50 mg/mL. The protocol: (§1) Lasmiditan acetate enables the desired solubility to provide high concentration formulations having a less than or equal to about 1 mL dose volume, for the desired unit doses, which is critical for clinical applications such as use in available autoinjector devices. In addition, dissolution of lasmiditan acetate at 50 mg/mL results in close to neutral pH (pH approximately 6.8), is isotonic, and stable for at least 2 months.

Data set [2] in a line: Stability of lasmiditan acetate 50 mg/mL solution. As to conditions: dissolution at 50 mg/mL. The procedure:
as §1

Data set [3] is described as follows: Solubility in 10 mmol acetate, citrate or phosphate buffer (excess solid equilibrated at RT overnight, HPLC). The protocol: Lasmiditan acetate was discovered to enable a desired dose target of about 50 mg in the minimal volume of less than or equal to about 1 mL, while at the same time achieving a desired target pH being close to neutral, and in addition being relatively isotonic and physically and chemically stable. […] For solubility determinations 10 mmol buffer is made with a respective acid and salt, and pH is adjusted by changing the acid/salt ratio. Excess solid is equilibrated at RT overnight, and solution concentration is analyzed by HPLC and solid was characterized by XRPD. In contrast, for lasmiditan acetate it was discovered that solubility of >50 mg/mL can be achieved, at close to neutral pH, without adjusting the pH.

A short description of data set [4]: Form and chemical stability studies of the intermediate. An excerpt:
[drawing 6] which can be named as (6-amino-2-pyridyl)-(1-methyl-4-piperidyl)methanone dihydrate dihydrochloride. Preferably this compound is crystalline. (6-amino-2-pyridyl)-(1-methyl-4-piperidyl)methanone dihydrate dihydrochloride is particularly useful in the preparation of 2,4,6-trifluoro-N-[6-(1-methylpiperidine-4-carbonyl)-2-pyridyl]benzamide hemisuccinate, and processes which employ (6-amino-2-pyridyl)-(1-methyl-4-piperidyl)methanone dihydrate dihydrochloride may provide advantageous process characteristics, including but not limited to the purity of intermediate and/or final materials. (6-amino-2-pyridyl)-(1-methyl-4-piperidyl)methanone dihydrate dihydrochloride is believed to be a new stable hydrated form of 6-amino-2-pyridyl)-(1-methyl-4-piperidyl)methanone. The process to isolate (6-amino-2-pyridyl)-(1-methyl-4-piperidyl)methanone dihydrate dihydrochloride described herein provides improved impurity rejection and an improved controlled crystallization process. […] Use of this intermediate provides advantageously high purity product at expected yield.

Experimental findings from patent publication US12071423B2, “Processes and intermediate for the large-scale preparation of 2,4,6-trifluoro-N-[6-(1-methyl-piperidine-4-carbonyl)-pyridin-2-yl]-benzamide hemisuccinate, and preparation of 2,4,6-trifluoro-N-[6-(1-methyl-piperidine-4-carbonyl)-pyridin-2-yl]-benzamide acetate” (Eli Lilly and Company, priority 2019, dated 2024) are described below.

Structures can show the parent of a compound that is named as a salt. Where two headings read alike, the source gives them in different places. A value given as a limit tells only on which side of the number the result lay.

As to `CC(=O)O.CN1CCC(C(=O)c2cccc(NC(=O)c3c(F)cc(F)cc3F)n2)CC1` [Lasmiditan Acetate, 2,4,6-trifluoro-N-[6-(1-methylpiperidine-4-carbonyl)-2-pyridyl]benzamide acetate], the pH on dissolution entry in data set [1] is given as “approximately 6.8”. Also, the tonicity of solution entry in data set [1] is “isotonic”. In data set [2], the stability of solution result is reported as “at least 2 months”. For the same molecule, in data set [3], the “solubility compared with lasmiditan hemisuccinate salt” value was “significantly higher solubility”. Further, the solubility is > 441 mg/mL in data set [3] (10 mmol acetate buffer, pH 3.69, aqueous buffer, thermodynamic from solid, Acetate buffer, pH (before) 3.69, free base eq., all added solute went into solution, read-out: Solubility (Free Base eq. mg/mL)); > 430 mg/mL in data set [3] (10 mmol acetate buffer, pH 4.05, aqueous buffer, thermodynamic from solid, Acetate buffer, pH (before) 4.05, free base eq., all added solute went into solution, read-out: Solubility (Free Base eq. mg/mL)); > 412 mg/mL in data set [3] (10 mmol acetate buffer, pH 4.4, aqueous buffer, thermodynamic from solid, Acetate buffer, pH (before) 4.4, free base eq., all added solute went into solution, read-out: Solubility (Free Base eq. mg/mL)); > 430 mg/mL in data set [3] (10 mmol acetate buffer, pH 5.09, aqueous buffer, thermodynamic from solid, Acetate buffer, pH (before) 5.09, free base eq., all added solute went into solution, read-out: Solubility (Free Base eq. mg/mL)); > 486 mg/mL in data set [3] (10 mmol acetate buffer, pH 5.71, aqueous buffer, thermodynamic from solid, Acetate buffer, pH (before) 5.71, free base eq., all added solute went into solution, read-out: Solubility (Free Base eq. mg/mL)); > 50 mg/mL in data set [3] (10 mmol buffer (acetate, citrate or phosphate), pH 6.8, thermodynamic from solid, at close to neutral pH, without adjusting the pH, read-out: solubility). Also, the solubility was > 300 mg/mL in data set [3] (10 mmol citrate buffer, pH 2.5, aqueous buffer, thermodynamic from solid, Citrate buffer, pH (before) 2.5, free base eq., all added solute went into solution, read-out: Solubility (Free Base eq. mg/mL)); > 300 mg/mL in data set [3] (10 mmol citrate buffer, pH 3.84, aqueous buffer, thermodynamic from solid, Citrate buffer, pH (before) 3.84, free base eq., all added solute went into solution, read-out: Solubility (Free Base eq. mg/mL)); > 300 mg/mL in data set [3] (10 mmol citrate buffer, pH 4.99, aqueous buffer, thermodynamic from solid, Citrate buffer, pH (before) 4.99, free base eq., all added solute went into solution, read-out: Solubility (Free Base eq. mg/mL)); > 300 mg/mL in data set [3] (10 mmol citrate buffer, pH 5.96, aqueous buffer, thermodynamic from solid, Citrate buffer, pH (before) 5.96, free base eq., all added solute went into solution, read-out: Solubility (Free Base eq. mg/mL)); > 300 mg/mL in data set [3] (10 mmol phosphate buffer, pH 8.24, aqueous buffer, thermodynamic from solid, Phosphate buffer, pH (before) 8.24, free base eq., all added solute went into solution, read-out: Solubility (Free Base eq. mg/mL)). Moreover, the “pH (after)” value in data set [3] (Acetate buffer, pH (before) 3.69) amounted to 6.25; in data set [3] (Acetate buffer, pH (before) 4.05), 6.41; in data set [3] (Acetate buffer, pH (before) 4.4), 6.31; in data set [3] (Acetate buffer, pH (before) 5.09) it was 6.50; in data set [3] (Acetate buffer, pH (before) 5.71), 6.56; in data set [3] (Citrate buffer, pH (before) 2.5), 5.60. For the same molecule, the “pH (after)” value in data set [3] (Citrate buffer, pH (before) 3.84) worked out at 5.72; in data set [3] (Citrate buffer, pH (before) 4.99), 6.23; in data set [3] (Citrate buffer, pH (before) 5.96), 6.24; in data set [3] (Phosphate buffer, pH (before) 8.24), 6.42.
Turning to `CN1CCC(C(=O)c2cccc(NC(=O)c3c(F)cc(F)cc3F)n2)CC1` [lasmiditan hemisuccinate, 2,4,6-trifluoro-N-[6-(1-methylpiperidine-4-carbonyl)-2-pyridyl]benzamide hemisuccinate, reference compound], the “achieving >50 mg/mL solubility” value in data set [3] (at close to neutral pH) is listed as “difficult without using co-solvents”.
With `CN1CCC(C(=O)c2cccc(N)n2)CC1` [(6-amino-2-pyridyl)-(1-methyl-4-piperidyl)methanone dihydrate dihydrochloride], the “form and chemical stability” value in data set [4] is listed as “generally stable”.
